Here are results for three molecules from publication PMC10164568 (2023).

Molecules are shown by their SMILES.

Assay [1] relates to 6H3M0 (DNA, hairpin) TTTTTTTTTTTTTTTTTTTTTTTTTAAAAAAAAAAAAAAAAAAAAAAAAAAAAAAA
Description: ThT fluorescence enhancement. Conditions: 10 mM Tris-HCl pH 7.4, room temperature; 1 μM DNA, 1 μM ThT.

The test system of assay [2] is H-BB (DNA, hairpin) ACATAATTTAATATTTATGTTAACATAAATATTAAATTATGT
Description: UV-vis absorption shift. To be noted: 10 mM Tris-HCl pH 7.4; 2.5 μM ThT in UV-vis.

Assay [3] deals with 3H3Md-TET (DNA, aptamer) CGGTGGTGCGGTGGTGAAACACCAAAACACCAAAA
Description: ThT displacement fluorescence. Conditions: 10 mM Tris-HCl pH 7.4; 12.5 μM compound; ThT displaced.

With `Cc1ccc2c(c1)sc(-c1ccc(N(C)C)cc1)[n+]2C`, the binding entry in assay [1] and in assay [2] was “weak” throughout.
For the molecule `CN(C)[C@@H]1C(=O)C(C(N)=O)=C(O)[C@@]2(O)C(=O)C3=C(O)c4c(O)cccc4[C@@](C)(O)[C@H]3[C@H](O)[C@@H]12`, the binding result in assay [3] is on record as “weak”.
The same measure, in the same setting: as for `C[C@H]1c2cccc(O)c2C(=O)C2=C(O)[C@]3(O)C(=O)C(C(N)=O)=C(O)[C@@H](N(C)C)[C@@H]3[C@@H](O)[C@@H]21`, the entry is “weak”.
